From the SangsterLogP compilation come the findings set out here.

The nature of one data set: method code SF-AS, from DOI: 10.1016/s0008-6215(00)84247-0, PMID: 18283. As to conditions: pH 7.5.
The logD is the decadic logarithm of the distribution of all forms, ionised or not, between an organic phase and buffer at a given pH. The low end stands for lower lipophilicity, the high end for higher lipophilicity. As to `OC[C@H]1O[C@@H](Sc2ccccc2)[C@H](O)[C@@H](O)[C@H]1O`, the logD was -0.56. `OC[C@H]1O[C@@H](SCCc2ccccc2)[C@H](O)[C@@H](O)C1O` (stereo in doubt) registered a log distribution coefficient (logD) of -0.1. For the compound `OC[C@H]1O[C@@H](SCc2ccccc2)[C@H](O)[C@@H](O)[C@H]1O`, the logD is -0.47. Regarding `OCC1OC(SCCCc2ccccc2)C(O)C(O)C1O` (stereo unspecified), the logD was found to be 0.38.

The nature of another data set: method code SF-CR, from DOI: 10.1016/s0008-6215(00)84247-0, PMID: 18283. As to conditions: pH 7.5.
In turn, `CCCCS[C@@H]1O[C@H](CO)[C@H](O)[C@H](O)[C@H]1O` gave a pH-dependent lipophilicity (logD) of -0.54. As to `CCCS[C@@H]1O[C@H](CO)[C@H](O)[C@H](O)[C@H]1O`, the logD was -1.18.

`CCCCCO[C@@H]1O[C@H](CO)[C@H](O)[C@H](O)[C@H]1O` registered a pH-dependent lipophilicity (logD) of -0.42. With `CCCCCCCO[C@@H]1O[C@H](CO)[C@H](O)[C@H](O)[C@H]1O`, the logD is 0.73. The compound `CCCCCCCS[C@@H]1O[C@H](CO)[C@H](O)[C@H](O)[C@H]1O` came in with a log distribution coefficient (logD) of 1.5.

`CC(C)S[C@@H]1O[C@H](CO)[C@H](O)[C@H](O)[C@H]1O` returned a logD of -1.26.

In turn, `CCCCCCS[C@@H]1O[C@H](CO)[C@H](O)[C@H](O)[C@H]1O` came in with a pH-dependent lipophilicity (logD) of 0.86. Still for that read-out and setting: in the case of `CCOC1O[C@H](CO)[C@H](O)[C@H](O)[C@H]1O` (stereo in doubt) it was -2.28.

The compound `CCCCO[C@@H]1O[C@H](CO)[C@H](O)[C@H](O)[C@H]1O` displayed a logD of -1.04. The same measure, in the same setting: the result for `CCCCCOC1C(O)C(O)OC(CO)C1O` (stereo unspecified) reads -0.8; that for `CCCO[C@@H]1O[C@H](CO)[C@H](O)[C@H](O)[C@H]1O`, -1.66.

`CCCCCCCCS[C@@H]1O[C@H](CO)[C@H](O)[C@H](O)[C@H]1O` yielded a logD of 2.13. Regarding `CCCCCS[C@@H]1O[C@H](CO)[C@H](O)[C@H](O)[C@H]1O`, the pH-dependent lipophilicity (logD) turned out to be 0.39.

As to `CCCCCCCCO[C@@H]1O[C@H](CO)[C@H](O)[C@H](O)[C@H]1O`, the log distribution coefficient (logD) was found to be 1.46. On the same count and under the same terms, the result for `CCCCCCO[C@@H]1O[C@H](CO)[C@H](O)[C@H](O)[C@H]1O` reads 0.16; that for `CCCCCOC1C(O)C(S)OC(CO)C1O` (stereo unspecified), -0.18; that for `CCS[C@@H]1O[C@H](CO)[C@H](O)[C@H](O)[C@H]1O`, -1.51.
